Results: patent US10988465B2, “CXCR4 inhibitors and uses thereof” (X4 Pharmaceuticals, Inc., priority 2016, dated 2021)

How the values were obtained:
[1] = target: T1, CXCR-4 transfected U87 cell line (U87.CXCR4) (Homo sapiens, UniProt P61073); assay: Intracellular CXCL-12-induced calcium mobilization assay (FLIPR); assay type: cell-based; details: U87.CXCR4 cells; CXCL-12 25-50 ng/mL; compound added 15 min before; read-out: IC50 CXCL-12 Ca^2+ flux U87.CXCR4+
T1 construct: expressed in transfected cells; host or cells: U87 (U87.CXCR4)
In short: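 CXCL-12 (25-50 ng/mL) was the stimulus, and the intracellular calcium rise was tracked kinetically by FLIPR at 37 °C. Cells were U87.CXCR4 transfectants pre-loaded 45 min at 37 °C with 4 μM (final) Fluo-2 AM in HEPES-buffered HBSS with 0.2% BSA, pH 7.4.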

[2] = target: T2, Jurkat cells expressing CXCR4 (Homo sapiens, UniProt P61073); assay: Chemokine (CXCL12-AF647) binding inhibition assay; details: CXCL12-AF647 25 ng/mL, read-out: IC50 CXCL-12 binding Jurkat
T2 construct: endogenous in cells; host or cells: Jurkat
In short: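 Cells in HBSS, 20 mM HEPES, 0.2% BSA, pH 7.4, preincubated 15 min at room temperature with compound, then 25 ng/mL CXCL12-AF647 for 30 min. After washing and paraformaldehyde fixation, bound ligand read by flow cytometry; percent inhibition calculated from MFI relative to unlabeled and ligand-only controls.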

in vitro = details: human, Caco-2, pH 7.4
In short: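 Bidirectional permeability across Caco-2 monolayers in HBSS (pH 7.4) at a test concentration of 10 μM, incubated 0 and 90 min at 37° C (n=2). Monolayer integrity was assessed by TEER and Lucifer yellow. Papp was derived from LC-MS/MS-measured concentrations.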

T2 sequence (P61073 whole entry): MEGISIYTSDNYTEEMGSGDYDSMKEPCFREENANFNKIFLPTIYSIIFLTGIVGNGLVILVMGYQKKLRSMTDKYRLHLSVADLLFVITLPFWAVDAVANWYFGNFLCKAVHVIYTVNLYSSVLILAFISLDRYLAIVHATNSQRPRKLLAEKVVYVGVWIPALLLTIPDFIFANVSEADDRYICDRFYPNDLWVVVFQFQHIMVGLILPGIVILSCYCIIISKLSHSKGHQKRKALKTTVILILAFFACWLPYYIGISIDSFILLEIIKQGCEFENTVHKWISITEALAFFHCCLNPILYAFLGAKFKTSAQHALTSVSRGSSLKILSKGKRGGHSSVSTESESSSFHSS
T1 sequence (P61073 whole entry): as above

| Compound | IC50 [1] | IC50 [2] | Papp A→B at 90 min, 10 μM (in vitro) | Papp B→A at 90 min, 10 μM (in vitro) | efflux ratio at 90 min, 10 μM (in vitro) |
| --- | --- | --- | --- | --- | --- |
| Cc1cccnc1[C@@H]1CCC[C@H](c2nc3ccccc3n2CCn2cccn2)N1C [I-7, 1-(2-(1H-pyrazol-1-yl)ethyl)-2-((2R,6S)-1-methyl-6-(3-methylpyridin-2-yl)piperidin-2-yl)-1H-benzo[d]imidazole] | ≥ 1000 nM | 0.01 to 100 nM | 10 to 30 ×10⁻⁶ cm/s | 10 to 30 ×10⁻⁶ cm/s | 0.1 to 10 |
| CCN1CCN(c2cccc3nc([C@H]4CCC[C@@H](c5ncccc5C)N4C)[nH]c23)CC1 [I-74] | 0.01 to 100 nM | 0.01 to 100 nM | 10 to 30 ×10⁻⁶ cm/s | 10 to 30 ×10⁻⁶ cm/s | 0.1 to 10 |
| Cc1cccnc1[C@@H]1CCC[C@H](c2nc3cccc(N4CC5CC4CN5C)c3[nH]2)N1C (some centres unmarked) [I-110] | 100 to 1000 nM | 0.01 to 100 nM | 0.1 to 10 ×10⁻⁶ cm/s | 10 to 30 ×10⁻⁶ cm/s | 0.1 to 10 |
| CN(C)C1CCN(c2cccc3nc([C@H]4CCC[C@@H](c5ncccc5Cl)N4C)[nH]c23)CC1 [I-97] | ≥ 1000 nM | 0.01 to 100 nM | 10 to 30 ×10⁻⁶ cm/s | 10 to 30 ×10⁻⁶ cm/s | 0.1 to 10 |
| CNCCCCn1c([C@H]2CCC[C@@H](c3ncccc3C)N2C)nc2ccccc21 [I-37] | ≥ 1000 nM | 0.01 to 100 nM | 0.1 to 10 ×10⁻⁶ cm/s | 10 to 30 ×10⁻⁶ cm/s | 10 to 30 |
| Cc1cccnc1[C@@H]1CCC[C@H](c2ncc[nH]2)N1Cc1ccccc1-n1cccn1 [I-166] | ≥ 1000 nM | 100 to 1000 nM | 10 to 30 ×10⁻⁶ cm/s | 10 to 30 ×10⁻⁶ cm/s | 0.1 to 10 |
| Cc1cccnc1[C@@H]1CCC[C@H](c2nc3ccccc3n2CC2CCN(CC(F)(F)F)CC2)N1C [I-24, 2-((2R,6S)-1-methyl-6-(3-methylpyridin-2-yl)piperidin-2-yl)-1-((1-(2,2,2-trifluoroethyl)piperidin-4-yl)methyl)-1H-benzo[d]imidazole] | ≥ 1000 nM | 100 to 1000 nM | 10 to 30 ×10⁻⁶ cm/s | 10 to 30 ×10⁻⁶ cm/s | 0.1 to 10 |
| CCN1CCN(c2cccc3nc([C@H]4CCC[C@@H](c5ncccc5Cl)N4)[nH]c23)CC1 [I-149] | 0.01 to 100 nM | 0.01 to 100 nM | 10 to 30 ×10⁻⁶ cm/s | 10 to 30 ×10⁻⁶ cm/s | 0.1 to 10 |
| Cc1cccnc1[C@@H]1CCC[C@H](c2nc3cccc(N4CCN(C)C(C)(C)C4)c3[nH]2)N1C [I-55] | 0.01 to 100 nM | 0.01 to 100 nM | 10 to 30 ×10⁻⁶ cm/s | 10 to 30 ×10⁻⁶ cm/s | 0.1 to 10 |
| CN1CCN(c2cccc3nc([C@H]4CCC[C@@H](c5ncccc5C(F)(F)F)N4C)[nH]c23)CC1 (relative stereo) [I-58] | ≥ 1000 nM | 0.01 to 100 nM | 10 to 30 ×10⁻⁶ cm/s | 10 to 30 ×10⁻⁶ cm/s | 0.1 to 10 |
| Cc1cccnc1[C@@H]1CCC[C@H](c2nc3ccccc3n2Cc2ccccc2-n2cccn2)N1 [I-161] | ≥ 1000 nM | 100 to 1000 nM | > 30 ×10⁻⁶ cm/s | > 30 ×10⁻⁶ cm/s | 0.1 to 10 |
| Cc1cccnc1[C@@H]1CCC[C@H](c2nc3ccccc3[nH]2)N1CCc1ccccn1 [I-27, 2-((2R,6S)-6-(3-methylpyridin-2-yl)-1-(2-(pyridin-2-yl)ethyl)piperidin-2-yl)-1H-benzo[d]imidazole] | 0.01 to 100 nM | 0.01 to 100 nM | 10 to 30 ×10⁻⁶ cm/s | 10 to 30 ×10⁻⁶ cm/s | 0.1 to 10 |
| Cc1cccnc1[C@@H]1CCC[C@H](c2nc3cccc(N4CCNC(C)C4)c3[nH]2)N1C (some centres unmarked) [I-50] | 0.01 to 100 nM | 0.01 to 100 nM | 0.1 to 10 ×10⁻⁶ cm/s | 10 to 30 ×10⁻⁶ cm/s | 10 to 30 |
| Cc1cccnc1[C@@H]1CCC[C@H](c2nc3ccccc3n2CCCN)N1C [I-2, 3-(2-((2R,6S)-1-methyl-6-(3-methylpyridin-2-yl)piperidin-2-yl)-1H-benzo[d]imidazol-1-yl)propan-1-amine] | 0.01 to 100 nM | 0.01 to 100 nM | 0.1 to 10 ×10⁻⁶ cm/s | 10 to 30 ×10⁻⁶ cm/s | > 30 |
| CN1CCN(c2cccc3nc([C@H]4CCC[C@@H](c5ncccc5Br)N4C)[nH]c23)CC1 [I-28, 2-((2R,6S)-6-(3-bromopyridin-2-yl)-1-methylpiperidin-2-yl)-7-(4-methylpiperazin-1-yl)-1H-benzo[d]imidazole] | 100 to 1000 nM | 0.01 to 100 nM | 0.1 to 10 ×10⁻⁶ cm/s | 0.1 to 10 ×10⁻⁶ cm/s | 0.1 to 10 |
| CN1CCC(n2ccnc2[C@H]2CCC[C@@H](c3ccccn3)N2)CC1 [I-180] | ≥ 1000 nM | ≥ 1000 nM | 0.1 to 10 ×10⁻⁶ cm/s | 10 to 30 ×10⁻⁶ cm/s | 0.1 to 10 |
| Cc1cccnc1[C@@H]1CCC[C@H](c2nc3ccccc3n2CCCN(C)C)N1 [I-155] | ≥ 1000 nM | 0.01 to 100 nM | 0.1 to 10 ×10⁻⁶ cm/s | > 30 ×10⁻⁶ cm/s | 0.1 to 10 |
| CCN1CCC(Cn2c([C@H]3CCC[C@@H](c4ncccc4C)N3C)nc3ccccc32)CC1 [I-22, 1-((1-ethylpiperidin-4-yl)methyl)-2-((2R,6S)-1-methyl-6-(3-methylpyridin-2-yl)piperidin-2-yl)-1H-benzo[d]imidazole] | 0.01 to 100 nM | 0.01 to 100 nM | 0.1 to 10 ×10⁻⁶ cm/s | 10 to 30 ×10⁻⁶ cm/s | 0.1 to 10 |
| Cc1cccnc1[C@@H]1CCC[C@H](c2nccn2C2CCN(C3CC3)CC2)N1C [I-174] | 100 to 1000 nM | 0.01 to 100 nM | 10 to 30 ×10⁻⁶ cm/s | 10 to 30 ×10⁻⁶ cm/s | 0.1 to 10 |
| Cc1cccnc1[C@@H]1CCC[C@H](c2nc3ccccc3n2CCCCN(C)C)N1C [I-38] | 100 to 1000 nM | 0.01 to 100 nM | 0.1 to 10 ×10⁻⁶ cm/s | 10 to 30 ×10⁻⁶ cm/s | 0.1 to 10 |
| Cc1cccnc1[C@@H]1CCC[C@H](c2nc3cccc(N4CCN(C)CC4)c3n2C)N1C [I-35] | 0.01 to 100 nM | 0.01 to 100 nM | 0.1 to 10 ×10⁻⁶ cm/s | 0.1 to 10 ×10⁻⁶ cm/s | 0.1 to 10 |
| Cc1cccnc1[C@@H]1C[C@@H](O)C[C@H](c2nc3cccc(N4CCN(C)CC4)c3[nH]2)N1C [I-101] | 0.01 to 100 nM | 0.01 to 100 nM | 0.1 to 10 ×10⁻⁶ cm/s | 10 to 30 ×10⁻⁶ cm/s | > 30 |
| Cc1cccnc1[C@@H]1CCC[C@H](c2nc3ccccc3n2CCCN2CCOCC2)N1C [I-18, 4-(3-(2-((2R,6S)-1-methyl-6-(3-methylpyridin-2-yl)piperidin-2-yl)-1H-benzo[d]imidazol-1-yl)-propyl)morpholine] | 0.01 to 100 nM | 0.01 to 100 nM | 10 to 30 ×10⁻⁶ cm/s | 10 to 30 ×10⁻⁶ cm/s | 0.1 to 10 |
| CN1[C@@H](c2nc3cccc(N4CCN5CCCC5C4)c3[nH]2)CCC[C@H]1c1ncccc1Cl (some centres unmarked) [I-150] | 0.01 to 100 nM | 0.01 to 100 nM | 10 to 30 ×10⁻⁶ cm/s | 10 to 30 ×10⁻⁶ cm/s | 0.1 to 10 |
| CN1C2CCC1CN(c1cccc3nc([C@H]4CCC[C@@H](c5ncccc5Cl)N4)[nH]c13)C2 [I-119] | 100 to 1000 nM | 0.01 to 100 nM | 10 to 30 ×10⁻⁶ cm/s | 10 to 30 ×10⁻⁶ cm/s | 0.1 to 10 |
